Reference: patent US20180170941A1 (priority 2016, published 2018)

These compounds were tested against T1, α5β3γ2 GABAA receptors (Ltk cell membranes) (Homo sapiens, UniProt P18507+P31644) (assay: Binding activity of test compounds on GABAAR: inhibition of [3H]Ro15-1788 binding). Details: not given.
T1 construct: membranes
Method in brief: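 Membranes from dexamethasone-induced Ltk cells (α5 line: 0.5 μM, 1 day); binding with [3H]Ro15-1788 for 1 h at 4 °C in 50 mM KH2PO4, 1 mM EDTA, 0.2 M KCl, pH 7.4, 0.2 mg/ml α5 protein. Nonspecific binding defined by 10 μM diazepam; filtration, scintillation counting, triplicates.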

T1 sequence (P31644 32-462): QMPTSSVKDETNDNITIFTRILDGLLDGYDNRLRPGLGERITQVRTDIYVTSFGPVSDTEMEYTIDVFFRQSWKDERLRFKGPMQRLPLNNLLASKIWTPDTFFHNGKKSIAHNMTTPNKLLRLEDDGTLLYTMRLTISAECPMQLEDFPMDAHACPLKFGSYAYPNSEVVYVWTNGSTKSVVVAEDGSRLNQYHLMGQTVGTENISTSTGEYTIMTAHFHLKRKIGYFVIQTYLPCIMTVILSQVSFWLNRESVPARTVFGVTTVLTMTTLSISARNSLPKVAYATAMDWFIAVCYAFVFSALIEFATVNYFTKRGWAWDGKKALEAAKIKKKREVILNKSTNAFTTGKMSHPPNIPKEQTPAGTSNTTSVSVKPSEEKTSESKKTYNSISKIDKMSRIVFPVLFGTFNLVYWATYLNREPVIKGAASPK
T1 sequence (P28472 26-473 partner): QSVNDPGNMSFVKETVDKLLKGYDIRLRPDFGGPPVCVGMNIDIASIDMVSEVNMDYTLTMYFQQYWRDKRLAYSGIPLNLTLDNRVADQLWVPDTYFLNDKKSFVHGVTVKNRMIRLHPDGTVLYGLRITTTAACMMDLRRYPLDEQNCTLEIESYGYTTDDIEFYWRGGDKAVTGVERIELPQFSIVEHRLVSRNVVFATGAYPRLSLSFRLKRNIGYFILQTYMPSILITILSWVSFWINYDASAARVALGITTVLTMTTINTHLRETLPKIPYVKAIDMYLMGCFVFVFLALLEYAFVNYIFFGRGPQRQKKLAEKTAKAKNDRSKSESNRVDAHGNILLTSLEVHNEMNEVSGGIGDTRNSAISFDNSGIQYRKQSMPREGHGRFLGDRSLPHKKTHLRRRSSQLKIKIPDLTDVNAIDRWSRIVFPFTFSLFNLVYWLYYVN
T1 sequence (P18507 40-475): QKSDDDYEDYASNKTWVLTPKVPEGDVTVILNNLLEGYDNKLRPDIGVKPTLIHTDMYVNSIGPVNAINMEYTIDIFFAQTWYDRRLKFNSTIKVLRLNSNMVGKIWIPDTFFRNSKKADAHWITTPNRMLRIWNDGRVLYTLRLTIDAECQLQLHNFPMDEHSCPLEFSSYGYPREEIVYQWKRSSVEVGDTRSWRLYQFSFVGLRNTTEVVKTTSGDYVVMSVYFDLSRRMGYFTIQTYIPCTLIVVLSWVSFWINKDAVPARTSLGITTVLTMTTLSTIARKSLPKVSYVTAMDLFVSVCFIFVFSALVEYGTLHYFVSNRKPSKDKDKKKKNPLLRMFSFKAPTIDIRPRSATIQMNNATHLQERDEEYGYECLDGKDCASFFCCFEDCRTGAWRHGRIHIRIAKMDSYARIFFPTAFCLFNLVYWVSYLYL

SMILES | Ki [nM]
CC(C)OCc1nnc2n1Cc1c(/C=C/c3ccccc3)ncn1-c1ccc(Cl)cc1-2 [Compound 446] | > 1000
CC(C)OCc1nnc2n1Cc1c(/C=C/c3ccc(F)cc3)ncn1-c1ccc(Cl)cc1-2 [Compound 447] | > 1000
COCc1nnc2n1Cc1c(-c3nc(C)no3)ncn1-c1cc(Cl)ccc1-2 [Compound 457] | > 1000
COCc1nnc2n1Cc1c(-c3nc(C)no3)ncn1-c1c(Cl)cccc1-2 [Compound 463] | > 1000
COCc1nnc2n1Cc1c(-c3ncco3)ncn1-c1c(Cl)cccc1-2 [Compound 466] | > 1000

Same assay, conditions: GABA α5 Binding Ki Values, inhibition of [3H]Ro15-1788 binding; reported as ranges

SMILES | Ki [nM]
COc1ccc2c(c1)-n1nncc1Cc1c(C#CCc3cccc(F)c3)ncn1-2 [Compound 419] | < 100
COc1ccc2c(c1)-n1nncc1Cc1c(C#CCc3ccccc3OC(F)(F)F)ncn1-2 [Compound 420] | < 100
COCc1nnc2n1Cc1c(C#CCc3cccc(F)c3)ncn1-c1ccc(Cl)cc1-2 [Compound 421] | < 100
COCc1nnc2n1Cc1c(C#CCc3cccc(Cl)c3)ncn1-c1ccc(Cl)cc1-2 [Compound 422] | < 100
COCc1nnc2n1Cc1c(C#CCc3cccc(OC(F)(F)F)c3)ncn1-c1ccc(Cl)cc1-2 [Compound 423] | < 100
COc1ccc2c(c1)-n1nncc1Cc1c(C#CC(C)C)ncn1-2 [Compound 424] | < 100
Cc1noc(-c2ncn3c2Cc2cnnn2-c2cc(Cl)ccc2-3)n1 [Compound 425] | < 100
CC(C)c1noc(-c2ncn3c2Cc2cnnn2-c2cc(Cl)ccc2-3)n1 [Compound 426] | < 100
COCc1nnc2n1Cc1c(-c3noc(C)n3)ncn1-c1ccc(Cl)cc1-2 [Compound 427] | < 100
O=C(C#Cc1ncn2c1Cc1cnnn1-c1cc(Cl)ccc1-2)c1ccccc1 [Compound 448] | < 100
C#Cc1ncn2c1C(Cc1ccccc1)c1cnnn1-c1cc(OC)ccc1-2 (stereo not shown) [Compound 449] | > 1000
C#Cc1ncn2c1C(Cc1cccc(F)c1)(Cc1cccc(F)c1)c1cnnn1-c1cc(OC)ccc1-2 [Compound 450] | > 1000
C#Cc1ncn2c1C(Cc1ccccc1F)c1cnnn1-c1cc(OC)ccc1-2 (stereo not shown) [Compound 451] | < 100
Clc1ccc2c(c1)-n1nncc1Cc1c(Br)ncn1-2 [Compound 452] | < 100
CC(C)C#Cc1ccc2c(c1)-n1nncc1Cc1c(C#CC(C)C)ncn1-2 [Compound 453] | 100 to 1000
CC(C)C#Cc1ccc2c(c1)-n1nncc1Cc1c(Br)ncn1-2 [Compound 454] | < 100
COCc1nnc2n1Cc1c(C#CC(=O)c3ccccc3)ncn1-c1ccc(Cl)cc1-2 [Compound 455] | < 100
COCc1nnc2n1Cc1c(-c3nc(C)no3)ncn1-c1ccc(OC(F)(F)F)cc1-2 [Compound 456] | < 100
COCc1nnc2n1Cc1c(-c3nc(C)no3)ncn1-c1ccc(C(F)(F)F)cc1-2 [Compound 459] | < 100
COCc1nnc2n1Cc1c(C3=NCCO3)ncn1-c1ccc(OC(F)(F)F)cc1-2 [Compound 460] | 100 to 1000
COCc1nnc2n1Cc1c(-c3nc(C)no3)ncn1-c1ccc(Br)cc1-2 [Compound 461] | < 100
COCc1nnc2n1Cc1c(-c3nc(C)no3)ncn1-c1ccc(-c3ccccc3)cc1-2 [Compound 462] | < 100
COCc1nnc2n1Cc1c(-c3nc(C)no3)ncn1-c1ccc(C#N)cc1-2 [Compound 465] | < 100
COCc1nnc2n1Cc1c(-c3ncco3)ncn1-c1ccc(OC(F)(F)F)cc1-2 [Compound 467] | < 100
COCc1nnc2n1Cc1c(-c3nc(C)no3)ncn1-c1ccc(-c3cccnc3)cc1-2 [Compound 469] | 100 to 1000
COCc1nnc2n1Cc1c(C3=NCCO3)ncn1-c1ccc(C(F)(F)F)cc1-2 [Compound 470] | 100 to 1000
COCc1nnc2n1Cc1c(-c3ncco3)ncn1-c1ccc(C(F)(F)F)cc1-2 [Compound 471] | < 100

Same assay, conditions: inhibition of [3H]Ro15-1788 binding; reported as ranges

SMILES | Ki [nM]
COCc1nnc2n1Cc1c(COc3ccccc3)ncn1-c1ccc(Cl)cc1-2 [Compound 429] | > 1000
COCc1nnc2n1Cc1c(COCc3ccccc3)ncn1-c1ccc(Cl)cc1-2 [Compound 430] | > 1000
COCc1nnc2n1Cc1c(COCc3ccccc3F)ncn1-c1ccc(Cl)cc1-2 [Compound 431] | > 1000
COCc1nnc2n1Cc1c(COCc3cccc(F)c3)ncn1-c1ccc(Cl)cc1-2 [Compound 432] | > 1000
COCc1nnc2n1Cc1c(COc3ccccc3F)ncn1-c1ccc(Cl)cc1-2 [Compound 433] | > 1000
COCc1nnc2n1Cc1c(COc3cccc(F)c3)ncn1-c1ccc(Cl)cc1-2 [Compound 434] | > 1000
COCc1nnc2n1Cc1c(COc3ccc(F)cc3)ncn1-c1ccc(Cl)cc1-2 [Compound 435] | > 1000

These compounds were tested on aged-impaired (AI) rats (assay: Radial Arm Maze (RAM) behavioral task, spatial memory retention). Details: 3 mg/kg, four-hour delay, p=0.004 or p=0.018.
Type: in vivo, rat
Description: The effects of methyl 3,5-diphenylpyridazine-4-carboxylate on the in vivo spatial memory retention of aged-impaired (AI) rats were assessed in a Radial Arm Maze (RAM) behavioral task using vehicle control and four different dosage levels of methyl 3,5-diphenylpyridazine-4-carboxylate (0.1 mg/kg, 0.3 mg/kg, 1 mg/kg and 3 mg/kg, ip). RAM behavioral tasks were performed on eight AI rats. All five treatment conditions (vehicle and four dosage levels) were tested on all eight rats.
The RAM apparatus used consisted of eight equidistantly-spaced arms. An elevated maze arm (7 cm width×75 cm length) projected from each facet of an octagonal center platform (30 cm diameter, 51.5 cm height). Clear side walls on the arms were 10 cm high and were angled at 65° to form a trough. A food well (4 cm diameter, 2 cm deep) was located at the distal end of each arm. Froot Loops™ (Kellogg Company) were used as rewards. Blocks constructed of Plexiglas™ (30 cm height×12 cm width) could be positioned to prevent entry to any arm. Numerous extra maze cues surrounding the apparatus were also provided.
The AI rats were initially subjected to a pre-training test (Chappell et al. Neuropharmacology 37: 481-487, 1998). […]

SMILES | memory performance relative to vehicle control
CCOC(=O)c1ncn2c1Cn1c(C)nnc1-c1cc(OC)ccc1-2 [ethyl 3-methoxy-7-methyl-9H-benzo[f]imidazo[1,5-a][1,2,4]tri] | significantly improved memory performance

What follows are compounds tested against T2, GABAA α5 receptor (Rattus norvegicus, UniProt P18508+P19969) (assay: GABAA α5 receptor occupancy with Ro 15-4513 tracer, hippocampus vs cerebellum). Details: 0.01-10 mg/kg, i.v.
T2 construct: from tissue
Type: in vivo, Long Evans rats
Description: Food and water were available ad libitum.
The (100 μl) supernatant solution was diluted by […] of sterile water (pH 6.5).

T2 sequence (P19969 32-464 limits assumed): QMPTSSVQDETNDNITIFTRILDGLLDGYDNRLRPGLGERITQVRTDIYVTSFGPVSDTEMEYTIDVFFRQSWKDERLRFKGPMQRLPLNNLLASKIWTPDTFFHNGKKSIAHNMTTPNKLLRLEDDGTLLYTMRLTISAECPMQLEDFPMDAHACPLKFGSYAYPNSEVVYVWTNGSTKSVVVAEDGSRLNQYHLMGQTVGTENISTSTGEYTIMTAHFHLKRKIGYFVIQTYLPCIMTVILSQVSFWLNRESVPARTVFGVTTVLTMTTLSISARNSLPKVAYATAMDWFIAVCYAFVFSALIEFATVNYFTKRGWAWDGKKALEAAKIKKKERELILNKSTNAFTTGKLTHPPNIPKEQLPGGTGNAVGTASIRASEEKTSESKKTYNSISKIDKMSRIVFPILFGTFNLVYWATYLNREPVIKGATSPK
T2 sequence (P18508 39-466): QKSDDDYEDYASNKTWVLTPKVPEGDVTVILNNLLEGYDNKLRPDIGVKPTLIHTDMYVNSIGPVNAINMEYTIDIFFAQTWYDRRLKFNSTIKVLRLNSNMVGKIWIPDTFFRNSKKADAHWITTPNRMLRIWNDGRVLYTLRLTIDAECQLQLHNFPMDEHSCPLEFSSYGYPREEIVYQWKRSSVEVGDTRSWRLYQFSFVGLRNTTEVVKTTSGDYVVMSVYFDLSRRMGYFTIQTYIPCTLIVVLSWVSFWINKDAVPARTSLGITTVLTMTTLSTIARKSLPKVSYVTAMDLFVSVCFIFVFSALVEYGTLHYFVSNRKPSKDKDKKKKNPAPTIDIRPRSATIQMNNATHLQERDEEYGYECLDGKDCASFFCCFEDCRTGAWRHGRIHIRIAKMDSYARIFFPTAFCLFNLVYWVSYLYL

SMILES | Ro 15-4513 binding in hippocampus | cerebellum levels (binding) of Ro 15-4513
CCOC(=O)c1ncn2c1Cn1c(C)nnc1-c1cc(OC)ccc1-2 [Ethyl 3-methoxy-7-methyl-9H-benzo[f]imidazo[1,5-a][1,2,4]tri] | blocked | did not affect
CCOC(=O)c1ncn2c1Cn1c(C)nnc1-c1cc(OC)ccc1-2 [ethyl 3-methoxy-7-methyl-9H-benzo[f]imidazo[1,5-a][1,2,4]tri] | reduced | without affecting

Same assay, conditions: tracer 1 μg/kg, i.v., after vehicle

SMILES | Ro 15-4513 level in hippocampus compared with cerebellum [fold]
CCOC(=O)c1ncn2c1CN(C)C(=O)c1cc(N=[N+]=[N-])ccc1-2 [Ro 15-4513] | > 5

What follows are compounds tested on aged-impaired (AI) rats (assay: Morris water maze behavioral task, ICV infusion). Details: 100 μg ICV.
Type: in vivo, rat
Description: Cognitively impaired aged rats were implanted unilaterally with a cannula into the lateral ventricle. Stereotaxic coordinates were 1.0 mm posterior to bregma, 1.5 mm lateral to midline, and 3.5 mm ventral to the skull surface. After about a week of recovery, the rats were pre-trained in a water maze for 2 days (6 trials per day) to locate a submerged escape platform hidden underneath the surface of the pool, in which the escape platform location varied from day to day. No intracerebroventricular (ICY) infusion was given during pre-training.
After pre-training, rats received ICV infusion of either 100 μg 6,6 dimethyl-3-(3-hydroxypropypthio-1-(thiazol-2-yl)-6,7-dihydro-2-benzothiophen-4(5H)-one (n=6) in 5 μl DMSO or vehicle DMSO (n=5) 40 min prior to water maze training and testing. Training consisted of 8 trials per day for 2 days where the hidden escape platform remained in the same location. Rats were given 60 seconds to locate the platform with a 60 seconds inter-trial interval. The rats were given a probe test (120 seconds) 24 hr. after the end of training where the escape platform was removed. During the training, there were 4 blocks, where each block had 4 training trials.
During a test trial 24 hr. after training, the escape platform was removed. The search/swim pattern of the rats was used to measure whether the rats remember where the escape platform was located during pre-trial training in order to test for the long-term memory of the rats. In this trial, “target annulus” is a designated area 1.5 times the size of the escape platform around the area where the platform was located during pre-trial training. “Opposite annulus” is a control area of the same size as the size of the target annulus, which is located opposite to the target annulus in the pool. If the rats had good long term memory, they would tend to search in the area surrounding the location where the platform was during the pre-trial training (i.e., the “target” annulus; and not the “opposite” annulus). “Time in annulus” is the amount of time in seconds that the rat spent in the target or opposite annulus area. “Number (#) of crossings” in annulus is the number of times the rat swam across the target or opposite annulus area.

SMILES | time to find the escape platform, block 1 (beginning of training) | time to find the escape platform, block 4 (end of training)
CC1(C)CC(=O)c2c(SCCCO)sc(-c3nccs3)c2C1 [6,6 dimethyl-3-(3-hydroxypropyl)thio-1-(thiazol-2-yl)-6,7-dihydro-2-benzothiophen-4(5H)-one] | about 24 seconds | about 9.6 seconds

Same assay, conditions: 100 μg ICV, 24 hr. after training

SMILES | number of crossings of target annulus compared with opposite annulus, probe test | time in target annulus compared with opposite annulus, probe test
CC1(C)CC(=O)c2c(SCCCO)sc(-c3nccs3)c2C1 [6,6 dimethyl-3-(3-hydroxypropyl)thio-1-(thiazol-2-yl)-6,7-dihydro-2-benzothiophen-4(5H)-one] | more often | significantly more time
